From patent US9051572B2, “Modulators of Itch ubiquitinase activity” (RYBOQUIN COMPANY LIMITED, priority 2005, dated 2015) come the findings set out here.

Type in all cases: cell-based, human
One experiment has as its system TAp73α. Briefly: Steady state protein levels analysis with proteasome inhibitor in Hek293 cells co-transfected with Itch. Particulars: MG132 50 μM, 40 min. How it is done:
The concentration of TAp73α, TAp73 ? and p53 was monitored by Western blotting. […] 25 μg of cell lysates were subjected to Western blotting. p73 proteins were detected by an anti-HA antibody. The same blots were re-probed with anti Myc antibody to detect Itch and with anti-Actin antibody to show equal loading.

The next experiment concerns Itch. Briefly: Western blot of endogenous Itch after DNA damaging agents in Saos-2 cells. The conditions noted are these: 24 and 48 hours, 2 μM doxorubicin, 15 μM etoposide, 5 μM cisplatin. The procedure:
(§1) FIG. 7 Itch is down regulated by DNA damaging agents. Saos-2 cells were treated with 2 μM doxorubicin (Doxo) for 24 or 48 hours then collected by trypsinization. Cells were lysed for western blotting (A) and half of the cells were ethanol fixed for apoptosis analysis (B). Western blots were performed with either anti-Itch (upper panel) or anti-p73 (lower panel) antibodies. Blots were stripped and re-probed with anti Lamin B antibody to show equal loading. Apoptosis was evaluated by flow cytometric analysis of PI stained cells. Non-treated controls (N.T.) are shown. H1299 cells transfected with HA-TAp73 ? (Con) are loaded as a control for p73 western blot.
(D) Western blot using anti-Itch antibody on Saos-2 cells treated for 24 and 48 hours with either 15 μM etoposide (Etopo) or 5 μM cisplatin (Cisp). Non-treated control cells are also shown (N.T.). Blots were stripped and re-probed with anti p73 antibody and Lamin B antibody to show equal loading.
Proteins were separated on SDS-PAGE and blotted onto nitrocellulose membranes. Filters were blocked with TBST 5% non-fat dry milk and incubated with primary antibodies for 2 hrs at room temperature (RT). Filters were incubated for 1 hour at RT using the appropriate horseradish peroxidase-conjugated secondary antibody (rabbit and mouse BioRad; goat Santa Cruz). Detection was performed with the enhanced chemiluminescence Supersignal West Pico (Pierce). […] Endogenous Itch was detected with a mouse monoclonal antibody (BD Bioscience), Actin (sc-1615) polyclonal goat antibody (Santa Cruz), Lamin B (sc-6217) goat polyclonal antibody (Santa Cruz), Hsp70 (sc-1060) polyclonal goat antibody (Santa Cruz), β-Tubulin (sc-9104) polyclonal rabbit antibody (Santa Cruz), p21 (sc-756) polyclonal rabbit antibody (Santa Cruz), p53 DO-1 and Pab1801 monoclonal mouse antibodies (Santa Cruz). c-Myc-tagged constructs were detected or immuno-precipitated with the sc-40 monoclonal mouse antibody (Santa Cruz), HA-tagged with the sc-805 polyclonal rabbit antibody (Santa Cruz), and the Flag-tagged constructs with the M2 monoclonal mouse antibody (Sigma).

The test system of the next experiment is TAp73. Description: Western blot of endogenous p73 after doxorubicin in Saos-2 cells. The conditions noted are these: 2 μM doxorubicin, 24 or 48 hours. How it is done:
as §1
Proteins were separated on SDS-PAGE and blotted onto nitrocellulose membranes. Filters were blocked with TBST 5% non-fat dry milk and incubated with primary antibodies for 2 hrs at room temperature (RT). Filters were incubated for 1 hour at RT using the appropriate horseradish peroxidase-conjugated secondary antibody (rabbit and mouse BioRad; goat Santa Cruz). Detection was performed with the enhanced chemiluminescence Supersignal West Pico (Pierce). Anti-p73 is a monoclonal antibody (ER15) (Neomarkers). […]

The subject of another experiment is Saos-2 cells. Briefly: Apoptosis by flow cytometric analysis of PI stained cells after doxorubicin. The conditions noted are these: 2 μM doxorubicin, 24 or 48 hours. The procedure: as §1
Human embryonal kidney cells (Hek293), HeLa cells and MEFs were grown in Dulbecco's modified Eagle medium (DMEM) (GibcoBRL); the human lung carcinoma cells H1299 and the human osteosarcoma cells Saos-2 were cultured in RPMI (GibcoBRL). MEF Itch−/− cells were prepared from Itch−/− mice (Y—C-Liu) or they were generous gift from Neil Copeland, Lynda Matesic, Nancy Jenkins. All media were supplemented with 10% (v/v) fetal bovine serum (FBS) (GibcoBRL). Saos-2-TAp73 ? were a kind gift of K. Vousden (Nakano, 2000). Saos-2-ΔNp73 ? were generated as described before (Maisse et al., 2004). […] Apoptosis was analysed by flow cytometric evaluation of DNA fragmentation.

Peptide text beside a SMILES is read from it. * marks the point of attachment. Cbz = O=C(OCc1ccccc1)*

Consider `CC(C)C[C@@H](C=O)NC(=O)[C@H](CC(C)C)NC(=O)[C@H](CC(C)C)NC(=O)OCc1ccccc1` [MG132] (Cbz-Leu-Leu-Leu-aldehyde), for which the “steady state levels of TAp73α in presence of Itch” value in the experiment with TAp73α is “blocks the Itch-mediated TAp73α degradation”.
As for `N.N.[Cl][Pt][Cl]` [cisplatin], in the experiment on Itch, the “endogenous Itch protein levels” value is recorded as “dramatic reduction in Itch protein levels”.
Turning to `COc1cccc2c1C(=O)c1c(O)c3c(c(O)c1C2=O)C[C@@](O)(C(=O)CO)C[C@@H]3O[C@H]1C[C@H](N)[C@H](O)[C@H](C)O1` [doxorubicin], the “endogenous TAp73 levels” value in the experiment on TAp73 was “increase in endogenous TAp73 levels”. Also, the apoptosis entry with Saos-2 cells is listed as “increase in apoptosis”. The “endogenous Itch protein levels” value with Itch was “down-regulated”.
As for `COc1cc([C@@H]2c3cc4c(cc3[C@@H](O[C@@H]3O[C@@H]5CO[C@@H](C)O[C@H]5[C@H](O)[C@H]3O)[C@H]3COC(=O)[C@H]23)OCO4)cc(OC)c1O` [etoposide], the “endogenous Itch protein levels” value with Itch is given as “dramatic reduction in Itch protein levels”.
